Reference: patent US11253527B2, “Method and composition for inhibiting virus infection” (priority 2019, dated 2022)

Columns and labels:
[1] = test system: Oral epithelial cells (OC3); assay: MTT cell viability of mock- or HSV-1-infected oral epithelial cells (OC3); format: cell-based
Experimental: (§1) FIG. 4 provides Experimental conditions for evaluation of the effects of Antrodia camphorata fruit body extracts on oral epithelial cells during HSV-1 infection. Three experimental conditions, including no-treatment, pre-treatment and post-treatment were performed. Oral epithelial cells (OC3) were pre-treated with media only or media containing each Antrodia camphorata extracts for 2 hours, followed by HSV-1 inoculation. Cells were infected with HSV-1 viruses at multiplicity of infection (MOI) of 5 or mock infected for 1 hour at 37° C. for viral entry to occur. Antrodia camphorata extracts were not added during viral inoculation for 1 hour to avoid of its direct effects on virions. Mock- or HSV-1-infected cells were further incubated in the absence or presence of the drug for 19 hours.
The oral epithelial cell line (OC3) was used to determine the possible effects of Antrodia camphorata extracts on oral epithelial cells during HSV-1 infection. Cell monolayers were treated as illustrated in FIG. 4 (please also see details in the Materials and Methods section). Three experimental conditions, including no-treatment, pre-treatment and post-treatment were performed. Whether these Antrodia camphorata extracts have effects before or after viral infection were examined. The effects of Antrodia camphorata extracts on viral propagation (viral yields) in infected oral epithelial cells were examined. At 19-20 h post infection, viral yields in the supernatants were determined using the plaque assay. Viability of treated cells was also determined using the MTT assay for the mitochondrial dehydrogenase activity. Moreover, purified HSV-1 virions were directly treated with Antrodia camphorata extracts to examine whether Antrodia camphorata extracts exert anti-HSV-1 activity directly on virus particles before viral entry. […]
The mitochondrial dehydrogenase activity of treated cells was evaluated using the FBS-free medium containing 1 mg/ml of 3-[4,5-dimethylthiazol-2-yl]-2,5 diphenyltetrazolium bromide (MTT). […]

[2] = test system: HepG2.2.15 cells; assay: MTT cell viability, HepG2.2.15 cells; settings: 48 h, 50 μg/ml
[3] = test system: HSV-1 virions; assay: Direct effect on infectivity of purified HSV-1 virions, plaque assay; format: cell-based, Herpes simplex virus type 1; settings: purified virions incubated directly with drug 1 hour at 37° C., dose-dependent
Experimental: Purified HSV-1 was incubated directly with media containing various concentrations of each Antrodia camphorata extracts for 1 hour at 37° C. The viral titers were then examined in oral epithelial cells (OC3) using the plaque assay. The results shown are the mean±SEM from at least three independent experiments. Statistical differences are shown by different lowercase letters (analysis of variance, Tukey, α=0.05).
(§2) The oral epithelial cell line (OC3) was used to determine the possible effects of Antrodia camphorata extracts on oral epithelial cells during HSV-1 infection. Cell monolayers were treated as illustrated in FIG. 4 (please also see details in the Materials and Methods section). Three experimental conditions, including no-treatment, pre-treatment and post-treatment were performed. Whether these Antrodia camphorata extracts have effects before or after viral infection were examined. The effects of Antrodia camphorata extracts on viral propagation (viral yields) in infected oral epithelial cells were examined. At 19-20 h post infection, viral yields in the supernatants were determined using the plaque assay. Viability of treated cells was also determined using the MTT assay for the mitochondrial dehydrogenase activity. Moreover, purified HSV-1 virions were directly treated with Antrodia camphorata extracts to examine whether Antrodia camphorata extracts exert anti-HSV-1 activity directly on virus particles before viral entry.
Oral epithelial cells (OC3 cells) were infected with HSV-1 at multiplicity of infection (MOI) of 5 or mock infected for 1 h at 37° C. for viral entry to occur. Unbound viruses were removed. Infected cells were then overlaid with appropriate media and incubated at 37° C. The Antrodia camphorata fruit body extracts used were A2 (Antrodia camphorata extracts), A3 (dehydrosulphurenic acid), A4 (antcin K), A5 (versisponic acid), and A6 (dehydroeburicoic acid). […]
Viral titers in the supernatants after infection were determined using the plaque assay. […] Plaques were observed and counted under an inverted microscope. […]

[4] = test system: HSV-1 virus (KOS strain); assay: HSV-1 viral yields in supernatants of OC3 cells, plaque assay; format: cell-based, Herpes simplex virus type 1
Experimental: as §1, §2
HSV-1 virus (KOS strain) from the extra-cellular fluid of infected Vero cells was purified using sucrose-gradient. Purified viruses were stored frozen in small aliquots. Purified viruses were titered using the plaque assay.
Oral epithelial cells (OC3 cells) were infected with HSV-1 at multiplicity of infection (MOI) of 5 or mock infected for 1 h at 37° C. for viral entry to occur. Unbound viruses were removed. Infected cells were then overlaid with appropriate media and incubated at 37° C. The Antrodia camphorata fruit body extracts used were A2 (Antrodia camphorata extracts), A3 (dehydrosulphurenic acid), A4 (antcin K), A5 (versisponic acid), and A6 (dehydroeburicoic acid). For the effects of Antrodia camphorata fruit body extracts, oral cells were treated in three different experimental conditions (FIG. 1): (1) no treatment, (2) pre-treatment with each Antrodia camphorata fruit body extracts before infection and (3) post-treatment with each Antrodia camphorata fruit body extracts after infection. Purified HSV-1 virions were also incubated directly with media only or media containing Antrodia camphorata fruit body extracts. The viral infectivity of treated virions was then examined using the plaque assay.
Viral titers in the supernatants after infection were determined using the plaque assay. Cells were grown to confluence and infected with tenfold serial dilution of the samples. Cells were then overlaid with medium containing 3% carboxymethylcellulose to prevent the formation of secondary plaques. Cells were incubated until well-defined clear plaques were formed. Cells were fixed with 3.7% formaldehyde and stained with crystal violet. Plaques were observed and counted under an inverted microscope. The viral yield of the media-pretreated HSV-1 infected control was considered to be 100%.

C=C(CC[C@@H](C)[C@H]1CC[C@H]2C3=C(C(=O)C[C@]12C)[C@@]1(C)CCC(O)[C@](C)(O)C1CC3O)C(C)C(=O)O (stereo partly drawn) [A4, antcin K]
viability of mock-infected cells or HSV-1 infected cells [1]: not affected evidently | toxic effect (MTT cell viability) [2]: little or no toxic effect | viral infectivity of treated HSV-1 virions [3]: statistically significantly inhibited | viral yields in the supernatants, post-treatment ([4]; OC3 cells post-treated after HSV-1 infection (MOI 5), 19 hours): significantly reduced | viral yields in the supernatants, pre-treatment ([4]; OC3 cells pre-treated 2 hours before HSV-1 infection (MOI 5)): little effects | viral yield reduced to ([4]; infected OC3 cells post-treated with 100 μg/ml, media control = 100%): 19%
